Laboratory results from PMC7822874, “Chemoprotective antimalarials identified through quantitative high-throughput screening of Plasmodium blood and liver stage parasites” (Scientific Reports, 2021).
Where “and” joins values, the source holds several entries; their conditions need not be identical. Identical values can stand only once. Like-named read-outs stand apart in the source and are kept apart here.

How the values were obtained:
[1] = system: HepG2; settings: human, hepg2 cells, 48 h
[2] = in vitro; settings: human
[3] = system: Plasmodium falciparum Dd2 asexual blood stage parasites; assay: microbe, parasite or virus in culture; set-up: species or system Plasmodium falciparum Dd2 in human erythrocytes; single determination (one 11-point concentration-response curve); settings: Plasmodium falciparum, DD2, Erythrocyte, 72 h; read-out: AC50
[4] = system: luciferase-expressing P. berghei liver stage parasites in HepG2 cells; assay: Inhibition of liver-stage development assay (ILSDA), Method 2 (WRAIR, 96-well); assay type: cell-based, Plasmodium berghei; settings: for AC50: Plasmodium berghei, HepG2, Method 2
[5] = in vitro; settings: human, hepg2 cells
[6] = system: P. berghei-ANKA-GFP-LucCON liver stage parasites in HepG2-A16-CD81EGFP cells; assay: P. berghei liver stage Pb-Luc assay, Method 1 (UCSD, 1536-well); assay type: cell-based, Plasmodium berghei; settings: for activity at 1 µM / activity at 3 µM: 48 h; for Max Resp (signal direction of the dose response): Decrease = decreasing P. berghei viability with dose, Increase = increasing signal, Inactive = no dose response
[7] = system: HepG2-A16-CD81EGFP cells
[8] = system: T1, Plasmodium falciparum Dd2-attB-ScDHODH (transgenic line expressing yeast DHODH), asexual blood stages; assay: organism not typed; set-up: replicate k of 3 (each line is one of three independent assays; the three lines of one compound and parasite line follow each other); settings: 72 h, n = 1
T1 construct: Dd2-attB-ScDHODH, the transgenic line that expresses yeast DHODH
How it was run: (§1)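 Three independent runs, compound subset only; parental vs ScDHODH line compared by two-sided Student's t-test.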

[9] = system: T2, Plasmodium falciparum Dd2-attB (parental line), asexual blood stages; assay: microbe, parasite or virus in culture; set-up: replicate k of 3 (each line is one of three independent assays; the three lines of one compound and parasite line follow each other); settings: n = 1
T2 construct: Dd2-attB, the isogenic parental line
How it was run: as §1

[10] = HepG2-A16-CD81EGFP cells, uninfected
[11] = Method 2, Decrease = decreasing P. berghei viability with dose, Increase = increasing signal, Inactive = no dose response
[12] = Hill fit, 50% of maximum activity response, read-out: AC50
[13] = log10 of molar AC50 from Hill fit, read-out: Log AC50 (converted)
[14] = Plasmodium berghei, 1 uM (compounds provided at 10 mM), average of 2 wells on a 1536 well plate, column 11, read-out: Pb-Luc (P. berghei liver stage), % of control, lower concentration, first repeat
[15] = Plasmodium berghei, 1 uM (compounds provided at 10 mM), average of 2 wells on a 1536 well plate, column 12, read-out: Pb-Luc (P. berghei liver stage), % of control, lower concentration, second repeat
[16] = Plasmodium berghei, 3 uM (compounds provided at 10 mM), average of 2 wells on a 1536 well plate, column 8, read-out: Pb-Luc (P. berghei liver stage), % of control, higher concentration, first repeat
[17] = Plasmodium berghei, 3 uM (compounds provided at 10 mM), average of 2 wells on a 1536 well plate, column 9, read-out: Pb-Luc (P. berghei liver stage), % of control, higher concentration, second repeat
[18] = Method 1, log10 of molar AC50 from Hill fit
[19] = Plasmodium berghei, Method 1, log10 of molar AC50 from Hill fit, read-out: Log AC50 (converted)
[20] = Plasmodium berghei, nominal 1 uM (10 mM stock), […] for 15 mM, 1.2 uM for 12 mM, 2 uM for 20 mM stock, average of 2 wells, 1536-well plate, repeat 1, read-out: Pb-Luc signal, 1 uM, repeat 1
[21] = Plasmodium berghei, nominal 1 uM (10 mM stock), […] for 15 mM, 1.2 uM for 12 mM, 2 uM for 20 mM stock, average of 2 wells, 1536-well plate, repeat 2, read-out: Pb-Luc signal, 1 uM, repeat 2
[22] = Plasmodium berghei, nominal 1 uM (10 mM stock), […] for 15 mM, 1.2 uM for 12 mM, 2 uM for 20 mM stock, average of 2 wells, 1536-well plate, repeat 3, read-out: Pb-Luc signal, 1 uM, repeat 3
[23] = Plasmodium berghei, nominal 3 uM (10 mM stock), 4.5 uM for 15 mM, 3.6 uM for 12 mM, 6 uM for 20 mM stock, average of 2 wells, 1536-well plate, repeat 1, read-out: Pb-Luc signal, 3 uM, repeat 1
[24] = Plasmodium berghei, nominal 3 uM (10 mM stock), 4.5 uM for 15 mM, 3.6 uM for 12 mM, 6 uM for 20 mM stock, average of 2 wells, 1536-well plate, repeat 2, read-out: Pb-Luc signal, 3 uM, repeat 2
[25] = Plasmodium berghei, nominal 3 uM (10 mM stock), 4.5 uM for 15 mM, 3.6 uM for 12 mM, 6 uM for 20 mM stock, average of 2 wells, 1536-well plate, repeat 3, read-out: Pb-Luc signal, 3 uM, repeat 3
[26] = nominal 1 uM (10 mM stock), […] for 15 mM, 1.2 uM for 12 mM, 2 uM for 20 mM stock, average of 2 wells, repeat 2
[27] = nominal 3 uM (10 mM stock), 4.5 uM for 15 mM, 3.6 uM for 12 mM, 6 uM for 20 mM stock, average of 2 wells, repeat 2

SMILES | Log AC50 (M) [1] [M] | viability at 48 h, 1 µM [2, 10] [%] | viability at 48 h, 3 µM [2, 10] [%] | AC50 [3] [µM] | Max Resp (signal direction of the dose response) [4, 11] | CC50 at 48 h [5] [µM] | activity at 1 µM [6, 20] [%] | activity at 1 µM [6, 21] [%] | activity at 1 µM [6, 22] [%] | activity at 3 µM [6, 23] [%] | activity at 3 µM [6, 24] [%] | activity at 3 µM [6, 25] [%] | HepG2 viability signal, 1 uM, repeat 2 [7, 26] [%] | HepG2 viability signal, 3 uM, repeat 2 [7, 27] [%] | other results
O=C1c2ccccc2C2=Nc3ccccc3SC(c3ccc(Cl)cc3)C12 (stereo not shown) [MLS000566883-01] | -4.3643 | 90 | 85 | 2.66 | Decrease | 43.2 | – | – | – | – | – | – | – | – | AC50 [4, 12]: 3.98 µM; AC50 [4, 13]: 3.98 µM
Cc1cccc(Nc2nc(NCc3ccco3)c3ccccc3n2)c1 [MLS000662793-01] | -4.3643 | 89 | 74 | 4.73 | Inactive | 43.2 | – | – | – | – | – | – | – | – | activity at 1 µM [6, 14]: 23%; activity at 1 µM [6, 15]: 19%; activity at 3 µM [6, 16]: 13%; activity at 3 µM [6, 17]: 11%
CCO.Nc1nc(N)c2cc(Sc3ccc4ccccc4c3)ccc2n1 [MLS000757047-01] | -4.5643 | 103 | 93 | 1.33 | Decrease | 27.3 | – | – | – | – | – | – | – | – | activity at 1 µM [6, 14]: 12%; activity at 1 µM [6, 15]: 12%; activity at 3 µM [6, 16]: 11%; activity at 3 µM [6, 17]: 10%; AC50 [4, 12]: 2.24 µM; AC50 [4, 13]: 2.24 µM; HepG2 viability, % of control, higher concentration, second repeat [7]: 96%; HepG2 viability, % of control, lower concentration, second repeat [7]: 99%
c1ccc(Nc2nc(NCc3ccco3)c3ccccc3n2)cc1 [MLS000767881-01] | -4.3643 | 94 | 80 | 1.68 | Decrease | 43.2 | – | – | – | – | – | – | – | – | AC50 [4, 12]: 2.24 µM; AC50 [4, 13]: 2.24 µM
COc1ccc(CCN2CCC(Nc3nc4ccccc4n3Cc3ccc(F)cc3)CC2)cc1 [NCGC00016913-08] | -4.4643 | – | – | 2.37 | – | 34.3 | – | – | – | – | – | – | – | – | AC50 [6]: 3.16 µM; Max Resp (signal direction of the dose response) ([6]; Method 1): Decrease; Log AC50 (M) [6, 18]: -5.500 M; AC50 [6, 19]: 2.82 µM; Max Resp (signal direction of the dose response) [4]: Inactive
N=c1n(CCN2CCCCC2)c2ccccc2n1CC(O)COc1ccc(Cl)cc1Cl (stereo not shown) [NCGC00100256-01] | -4.5143 | 103 | 102 | 4.22 | – | 30.6 | 94.7 | 93.8 | 119 | 65.4 | 71 | 72.8 | 103.32 | 101.25 | –
CCCCCn1c(=N)n(CC(O)COc2cccc(C)c2)c2ccccc21 (stereo not shown) [NCGC00101833-01] | -4.3643 | 98.8 | 94.8 | 2.11 | – | 43.2 | 93.7 | 90.1 | 79.6 | 67.5 | 71 | 96.1 | 100.99 | 100.64 | –
CN(C)CCCNc1cc(N2CCN(C3CCCCC3)CC2)c2noc3c2c1C(=O)c1ccccc1-3 [NCGC00111069-01] | -4.4143 | 96.3 | 93.8 | 1.33 | – | 38.5 | 66 | 110 | 109 | 57.2 | 71.6 | 75.6 | 102.79 | 99.71 | –
Oc1cc(NCc2ccccc2)cc2cccnc12 [NCGC00183793-01] | -4.3643 | 91 | 52 | 2.99 | – | 43.2 | – | – | – | – | – | – | – | – | Individual replicates / Log AC50 (M) [8]: -5.2486 Log AC50 (M); AC50 ([8]; read-out: Individual replicates / Log AC50 (converted)): 4.48 µM; Individual replicates / Log AC50 (M) ([9]; 72 h): -5.3986 Log AC50 (M) and -5.2986 Log AC50 (M); AC50 ([9]; Plasmodium falciparum, DD2, 72 h, read-out: Individual replicates / Log AC50 (M) (converted)): 3.56e-06 M
CN1CCN(c2ccc3ncc(Nc4ccccc4-c4ccccc4)n3n2)CC1 [NCGC00412547-01] | -4.3528 | 96 | 97.1 | 0.863 | – | 44.4 | 101 | 104 | 100 | 50.6 | 88.8 | 92.9 | 97.22 | 96.99 | –
COc1ccccc1Nc1cnc2ccc(-c3ccc(OC)c(OC)c3)nn12 [NCGC00412573-01] | -4.3528 | 108 | 73.1 | 1.53 | – | 44.4 | 7.11 | 51.2 | 2.63 | 1.18 | 32.2 | 43.3 | 106.68 | 92.36 | Max Resp (signal direction of the dose response) ([6]; Method 1): Decrease; AC50 ([6]; Method 1, Hill fit, 50% of maximum activity response, read-out: AC50): 0.447 µM; Log AC50 (M) [6, 18]: -6.350 M; AC50 ([6]; Plasmodium berghei, Method 1, Hill fit, 50% of maximum activity response, read-out: AC50): 0.355 µM; AC50 [6, 19]: 0.355 µM; Activity direction (Decrease / Inactive) ([4]; P. berghei liver stage, Method 2, dose response): Inactive
COc1ccc(CN2CCCn3nc(C)c(-c4ccccc4Oc4ccccc4)c32)cc1O [NCGC00420291-01] | -4.3643 | 101 | 105 | 9.44 | – | 43.2 | 77.1 | 79.5 | 133 | 83.6 | 59.5 | 87.2 | 99.76 | 103.00 | –
O=C(Nc1ccccc1)OC[C@H]1C[C@@H]2CCN1C[C@@H]2c1cc(C2CCCC2)nc(-c2ccncc2)n1 [NCGC00421344-01] | -4.4643 | – | – | 1.68 | – | 34.3 | 68.5 | 91.8 | 72.8 | 27.1 | 71.6 | 77.7 | – | – | viability at 48 h, 1 µM [2]: 101%; viability at 48 h, 3 µM [2]: 105%; HepG2 viability signal, 1 uM, repeat 2 ([7]; human, 48 h, 1 µM): 103.60%; HepG2 viability signal, 3 uM, repeat 2 ([7]; human, 48 h, 3 µM): 105.28%
